Data reported in patent US20230364057A1, “BACTERIAL DNA GYRASE INHIBITORS AND METHODS OF USE THEREOF” (THE FLORIDA INTERNATIONAL UNIVERSITY BOARD OF TRUSTEES, priority 2022, published 2023).
In brackets after ≈: the same amount, converted by molar mass. Like-named read-outs stand apart in the source and are kept apart here.

Assays:
MRSA = assay: Minimum inhibitory concentration, broth microdilution; conditions: for MIC: Staphylococcus aureus, MRSA
E. coli DNA gyrase [1] = target: T1, E. coli DNA gyrase (Escherichia coli (strain K12), UniProt P0AES4+P0AES6); assay: Agarose gel-based DNA gyrase inhibition assay; type: biochemical; conditions: for inhibition of E. coli DNA gyrase activities: 50 µM of compounds
Protocol: 100 ng of DNA gyrase was used to supercoil the rx pAB1 in the presence of different concentrations of a gyrase inhibitor. […] Samples were analyzed by electrophoresis in 1% w/v agarose gels followed by ethidium bromide staining and photographed under UV light.

B. subtilis (ATCC 6633) = assay: Minimum inhibitory concentration, broth microdilution; conditions: Bacillus subtilis, ATCC6633, read-out: Minimum Inhibitory Concentration B.subtilis
Protocol: Antibacterial minimum inhibitory concentrations (MICs) were obtained from three independent experiments using broth microdilution methods in 96-well plates according to Clinical and Laboratory Standards Institute guidelines. Cells were culture from singles colonies in MHIIB medium for 24 h at 37° C. in agitation (200 RPM). The cultures were then diluted using the same media to reach an OD600 of 0.1. Then, 50 µL of the diluted cultures were added to the plates holding 50 µL of serially diluted compounds in MHIIB. The plates were incubated at 37° C. for 20 h. The starting inoculum was fixated to 10^5 colony-forming units per ml.

E. coli DNA gyrase [2] = target: T1, E. coli DNA gyrase; assay: biochemical; type: biochemical
S. aureus (ATCC 14775) = assay: Minimum inhibitory concentration, broth microdilution; conditions: for MIC: Staphylococcus aureus
in vitro [3] = conditions: human
in vitro [4] = conditions: mouse
Mtb = Mtb whole cell assay (% inhibition, MIC); type: cell-based, Mycobacterium tuberculosis; conditions: Mycobacterium tuberculosis; Table 5 (same values in Table 6 at 20 µM)
Mtb DNA gyrase = Mtb DNA gyrase (Mycobacterium tuberculosis (strain ATCC 25618 / H37Rv), UniProt P9WG45+P9WG47); assay: Mtb DNA gyrase inhibition assay (gel-based); type: biochemical; conditions: Table 5, Mtb gyrase; read-out: IC50 (µM) Mtb
Protocol: The IC50 against E. coli (A) and Mtb (C) gyrase were determined using the gel-based gyrase inhibition assays. The gyrase mediated DNA cleavage assays (B and D) were performed using pBR322. (A) 229 inhibits E. coli gyrase. Lane 1, rx pAB1. […] Lane 1, rx pAB1. […] 100 µM of CPDs were used. Symbols rx, nk, In, and sc represent relaxed, nicked, linear, and supercoiled DNA, respectively.
Agarose gel-based DNA gyrase inhibition assays were performed in 30 µL of 1 ×gyrase buffer (35 mM Tris-HCl, 24 mM KCl, 4 mM MgCl2, 2 mM DTT, 1.75 mM ATP, 0.1 mg/mL BSA, 6.5% glycerol, pH7.5) containing 400 ng of rx pAB1 at 37° C. 100 ng of DNA gyrase was used to supercoil the rx pAB1 in the presence of different concentrations of a gyrase inhibitor. After 15 minutes of incubation with the inhibitor at 37° C., all reactions were stopped with 1 µL of stop solution (3% SDS and 250 mM EDTA). Samples were analyzed by electrophoresis in 1% w/v agarose gels followed by ethidium bromide staining and photographed under UV light.

E. coli (ATCC 25922) = assay: Minimum inhibitory concentration, broth microdilution; conditions: Escherichia coli, ATCC25922, read-out: Minimum Inhibitory Concentration E. coli, Tables 3a-3c
[5] = target: E. coli DNA topoisomerase IV (Escherichia coli (strain K12), UniProt P0AFI2+P20083); assay: E. coli DNA topoisomerase IV relaxation assay (gel-based); type: biochemical; conditions: IC50 Topoisomerase IV Gel-based, Table 8
Protocol: Relaxation assays by E. coli DNA topoisomerase IV and the ATPase assays were performed. […] Lane 1 is supercoiled plasmid pAB1. […] The supercoiled, fluorescently-labeled plasmid pAB1_FL905 was used.

[6] = read-out: Minimum Inhibitory Concentration S.aureus MRSA
[7] = IC50 ([…]-50 µM), bin of Table 2
[8] = ATCC14775, read-out: Minimum Inhibitory Concentration S.aureus
[9] = IC50 (µM) EC, Table 5, E. coli gyrase
[10] = ATCC14775, read-out: MIC (µM) SA
[11] = IC50 (15-[…] µM), bin of Table 2

Chain of E. coli DNA topoisomerase IV (P0AFI2 whole entry, looked up): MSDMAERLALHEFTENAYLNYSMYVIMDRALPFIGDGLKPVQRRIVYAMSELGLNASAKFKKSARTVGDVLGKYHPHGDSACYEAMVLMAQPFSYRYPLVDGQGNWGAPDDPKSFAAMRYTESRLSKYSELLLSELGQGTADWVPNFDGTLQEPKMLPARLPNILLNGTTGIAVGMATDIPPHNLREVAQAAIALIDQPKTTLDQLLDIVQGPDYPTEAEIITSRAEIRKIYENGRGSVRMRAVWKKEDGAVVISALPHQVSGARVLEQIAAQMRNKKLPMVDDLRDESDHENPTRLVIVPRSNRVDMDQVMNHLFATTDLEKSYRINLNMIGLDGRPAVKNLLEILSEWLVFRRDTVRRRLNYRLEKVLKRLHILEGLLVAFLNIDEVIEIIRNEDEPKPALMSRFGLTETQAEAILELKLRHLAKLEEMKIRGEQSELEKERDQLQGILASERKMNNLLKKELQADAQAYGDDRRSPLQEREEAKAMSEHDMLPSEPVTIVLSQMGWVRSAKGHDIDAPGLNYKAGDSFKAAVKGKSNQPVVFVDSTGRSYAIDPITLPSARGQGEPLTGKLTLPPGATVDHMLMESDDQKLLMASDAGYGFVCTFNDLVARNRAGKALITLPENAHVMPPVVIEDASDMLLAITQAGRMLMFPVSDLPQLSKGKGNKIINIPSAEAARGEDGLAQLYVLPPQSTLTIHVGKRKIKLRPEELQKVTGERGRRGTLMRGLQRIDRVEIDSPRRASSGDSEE
Chain of E. coli DNA topoisomerase IV (P20083 whole entry, looked up): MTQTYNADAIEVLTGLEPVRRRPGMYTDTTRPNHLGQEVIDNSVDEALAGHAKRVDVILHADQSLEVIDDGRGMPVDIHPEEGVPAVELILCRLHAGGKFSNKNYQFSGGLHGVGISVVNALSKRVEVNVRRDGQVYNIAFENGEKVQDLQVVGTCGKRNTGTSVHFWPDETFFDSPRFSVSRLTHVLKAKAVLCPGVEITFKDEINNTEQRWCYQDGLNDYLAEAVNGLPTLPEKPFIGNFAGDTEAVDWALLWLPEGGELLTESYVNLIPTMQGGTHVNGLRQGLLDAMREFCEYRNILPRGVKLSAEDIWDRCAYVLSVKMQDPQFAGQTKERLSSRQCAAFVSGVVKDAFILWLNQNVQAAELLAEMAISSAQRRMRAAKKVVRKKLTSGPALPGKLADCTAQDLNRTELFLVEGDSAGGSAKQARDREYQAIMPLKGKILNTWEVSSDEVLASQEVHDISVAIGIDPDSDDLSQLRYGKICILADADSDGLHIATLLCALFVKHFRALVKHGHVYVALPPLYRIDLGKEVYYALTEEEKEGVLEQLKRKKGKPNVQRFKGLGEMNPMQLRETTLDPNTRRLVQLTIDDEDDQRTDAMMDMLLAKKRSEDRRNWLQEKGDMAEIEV

CCc1ccc(S(=O)(=O)/N=C2/C=C(Nc3ccc(C(=O)O)cc3)C(=O)c3ccccc32)cc1 [Compound 104]
MIC (MRSA; [6]): 100 µM (≈ 46.1 µg/mL) | inhibition of E. coli DNA gyrase activities (E. coli DNA gyrase [1]): completely inhibited | MIC (B. subtilis (ATCC 6633)): 50 µM (≈ 23 µg/mL) | IC50 (E. coli DNA gyrase [2]; [7]): 25 to 50 µM | MIC (S. aureus (ATCC 14775); [8]): 100 µM (≈ 46.1 µg/mL)

COc1cccc(-n2c(C)cc(/C=C3/C(=N)N4C(=NC3=O)SN=C4[S+](C)[O-])c2C)c1 (centres unmarked) [Compound 105]
MIC (MRSA; [6]): 100 µM (≈ 44.2 µg/mL) | inhibition of E. coli DNA gyrase activities (E. coli DNA gyrase [1]): completely inhibited | MIC (B. subtilis (ATCC 6633)): 25 µM (≈ 11 µg/mL) | IC50 (E. coli DNA gyrase [2]; [7]): 25 to 50 µM | MIC (S. aureus (ATCC 14775); [8]): 50 µM (≈ 22.1 µg/mL)

O=C(O)c1ccc(NN=CC=Cc2ccc([N+](=O)[O-])o2)cc1 [Compound 110]
IC50 (in vitro [3]): > 200 µM | IC50 (in vitro [4]): > 200 µM | inhibition of E. coli DNA gyrase activities (E. coli DNA gyrase [1]): potently inhibited | IC50 (E. coli DNA gyrase [2]; IC50 (50-200 µM), bin of Table 2): 50 to 200 µM

Cc1c(CC(=O)O)c(=O)oc2c(C)c3occ(-c4ccc(Br)cc4)c3cc12 [Compound 117]
inhibition at 20 µM (Mtb): 24.7% | MIC (MRSA; read-out: MIC (µM) MRSA): 1.6 µM (≈ 0.684 µg/mL) | MIC (MRSA; [6]): 1.56 µM (≈ 0.667 µg/mL) | inhibition of E. coli DNA gyrase activities (E. coli DNA gyrase [1]): completely inhibited | IC50 (Mtb DNA gyrase): 50 µM | IC50 (E. coli DNA gyrase [2]; [9]): 15.7 µM | MIC (S. aureus (ATCC 14775); [10]): 1.6 µM (≈ 0.684 µg/mL) | MIC (S. aureus (ATCC 14775); [8]): 1.56 µM (≈ 0.667 µg/mL)

Cc1c(C)c2cc3c(-c4ccc(Br)cc4)coc3c(C)c2oc1=O [Compound 118]
inhibition at 20 µM (Mtb): 21.8% | MIC (MRSA; read-out: MIC (µM) MRSA): > 200 µM | IC50 (Mtb DNA gyrase): > 200 µM | IC50 (E. coli DNA gyrase [2]; [9]): > 200 µM | MIC (S. aureus (ATCC 14775); [10]): > 200 µM

Cc1c(CCC(=O)O)c(=O)oc2c(C)c3occ(-c4ccc(Cl)cc4)c3cc12 [Compound 120]
inhibition at 20 µM (Mtb): 18.7% | MIC (MRSA; read-out: MIC (µM) MRSA): 1.6 µM (≈ 0.635 µg/mL) | MIC (MRSA; [6]): 1.56 µM (≈ 0.619 µg/mL) | inhibition of E. coli DNA gyrase activities (E. coli DNA gyrase [1]): completely inhibited | IC50 (Mtb DNA gyrase): 33 µM | IC50 (E. coli DNA gyrase [2]; [9]): 7.9 µM | MIC (S. aureus (ATCC 14775); [10]): 1.6 µM (≈ 0.635 µg/mL) | MIC (S. aureus (ATCC 14775); [8]): 1.56 µM (≈ 0.619 µg/mL)

Cc1c(CCC(=O)O)c(=O)oc2c(C)c3occ(-c4ccccc4)c3cc12 [Compound 121]
inhibition at 20 µM (Mtb): 36.7% | MIC (MRSA; read-out: MIC (µM) MRSA): 3.1 µM (≈ 1.12 µg/mL) | MIC (MRSA; [6]): 3.12 µM (≈ 1.13 µg/mL) | MIC (B. subtilis (ATCC 6633)): 50 µM (≈ 18.1 µg/mL) | IC50 (Mtb DNA gyrase): 58 µM | IC50 (E. coli DNA gyrase [2]; [9]): 28 µM | MIC (S. aureus (ATCC 14775); [10]): 3.1 µM (≈ 1.12 µg/mL) | MIC (S. aureus (ATCC 14775); [8]): 3.12 µM (≈ 1.13 µg/mL)

Cc1coc2cc3oc(=O)c(CCC(=O)O)c(C)c3cc12 [Compound 122]
inhibition at 20 µM (Mtb): 15.7% | MIC (MRSA; read-out: MIC (µM) MRSA): > 200 µM | inhibition of E. coli DNA gyrase activities (E. coli DNA gyrase [1]): potently inhibited | IC50 (Mtb DNA gyrase): > 200 µM | IC50 (E. coli DNA gyrase [2]; [9]): > 200 µM | MIC (S. aureus (ATCC 14775); [10]): > 200 µM

Cc1c(CCC(=O)O)c(=O)oc2c(C)c3occ(-c4ccc(F)cc4)c3cc12 [Compound 123]
inhibition at 20 µM (Mtb): 31.8% | MIC (MRSA; read-out: MIC (µM) MRSA): 1.6 µM (≈ 0.609 µg/mL) | MIC (MRSA; [6]): 1.56 µM (≈ 0.593 µg/mL) | inhibition of E. coli DNA gyrase activities (E. coli DNA gyrase [1]): completely inhibited | MIC (B. subtilis (ATCC 6633)): 6.25 µM (≈ 2.38 µg/mL) | IC50 (Mtb DNA gyrase): 34 µM | IC50 (E. coli DNA gyrase [2]; [9]): 28.1 µM | MIC (S. aureus (ATCC 14775); [10]): 1.6 µM (≈ 0.609 µg/mL) | MIC (S. aureus (ATCC 14775); [8]): 1.56 µM (≈ 0.593 µg/mL)

Cc1c(CCC(=O)O)c(=O)oc2c(C)c3occ(-c4ccc(N5CCCC5)cc4)c3cc12 [Compound 125]
inhibition at 20 µM (Mtb): 10.2% | growth of MRSA (MRSA): did not inhibit the growth | inhibition of E. coli DNA gyrase activities (E. coli DNA gyrase [1]): completely inhibited | IC50 (Mtb DNA gyrase): 55 µM | inhibition of E. coli DNA gyrase activities (E. coli DNA gyrase [2]): potently inhibited | IC50 (E. coli DNA gyrase [2]; [9]): 4.9 µM | growth of S. aureus (S. aureus (ATCC 14775)): did not inhibit the growth | MIC (S. aureus (ATCC 14775); [10]): > 200 µM

CCn1c(N)[n+](CC(=O)Nc2ccc(SC(F)F)cc2)c2ccccc21.[Cl-] [Compound 135]
MIC (MRSA; [6]): 50 µM | inhibition of E. coli DNA gyrase activities (E. coli DNA gyrase [1]): completely inhibited | MIC (B. subtilis (ATCC 6633)): 50 µM | IC50 (E. coli DNA gyrase [2]; [11]): 15 to 25 µM | MIC (S. aureus (ATCC 14775); [8]): 50 µM | MIC (E. coli (ATCC 25922)): 200 µM

Cc1ccc2nc3n(c2c1C)C/C(=C/c1ccc(-c2ccccc2C(=O)O)o1)[S+]3[O-] (centres unmarked) [Compound 155]
MIC (MRSA; [6]): 50 µM (≈ 20.9 µg/mL) | inhibition of E. coli DNA gyrase activities (E. coli DNA gyrase [1]): completely inhibited | MIC (B. subtilis (ATCC 6633)): 50 µM (≈ 20.9 µg/mL) | IC50 (E. coli DNA gyrase [2]; [11]): 15 to 25 µM | MIC (S. aureus (ATCC 14775); [8]): 100 µM (≈ 41.8 µg/mL)

COc1cc(/C=N/N=c2\[nH]c3ccccc3s2)cc([N+](=O)[O-])c1O [Compound 178]
IC50 (in vitro [3]): > 200 µM | IC50 (in vitro [4]): > 200 µM | inhibition of E. coli DNA gyrase activities (E. coli DNA gyrase [1]): completely inhibited

O=C(O)c1cc(O)c(O)c(O)c1 [gallic acid]
IC50 (E. coli DNA gyrase [1]; Table 8, read-out: IC50 Gyrase Gel-based): > 500 µM | inhibition of E. coli DNA gyrase activities (E. coli DNA gyrase [2]): does not inhibit E. coli DNA gyrase up to 500 µM | IC50 [5]: > 500 µM
